Laboratory results from PubChem BioAssay (NCI).
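Dose response: 5 concentrations. Exposure: 48 h. Format: 96-well plates. Endpoint: linear interpolation; highest concentration if not reached. At the TGI there is no net growth.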

Key:
Test in all cases: inhibition of tumour cell growth, NCI panel, 48 h
M14 melanoma = test system: M14 melanoma
U251 CNS = test system: U251 CNS
HL-60(TB) leukemia = test system: HL-60(TB) leukemia
DMS 273 small cell lung = test system: DMS 273 small cell lung
K-562 leukemia = test system: K-562 leukemia
HOP-62 NSCLC = test system: HOP-62 NSCLC
NCI-H522 lung = test system: NCI-H522 lung
HOP-92 NSCLC = test system: HOP-92 NSCLC
RXF 393 renal = test system: RXF 393 renal
A549 NSCLC = test system: A549 NSCLC
NCI-H460 lung = test system: NCI-H460 lung
SK-OV-3 ovarian = test system: SK-OV-3 ovarian
SK-MEL-5 melanoma = test system: SK-MEL-5 melanoma
786-0 renal = test system: 786-0 renal
HCC-2998 colon = test system: HCC-2998 colon
CCRF-CEM leukemia = test system: CCRF-CEM leukemia
SF-268 CNS = test system: SF-268 CNS
HCT-116 colon = test system: HCT-116 colon
OVCAR-4 ovarian = test system: OVCAR-4 ovarian
SN12C renal = test system: SN12C renal
SK-MEL-28 melanoma = test system: SK-MEL-28 melanoma
DLD-1 colon = test system: DLD-1 colon
HOP-18 NSCLC = test system: HOP-18 NSCLC
RPMI-8226 leukemia = test system: RPMI-8226 leukemia
UO-31 renal = test system: UO-31 renal
XF 498 CNS = test system: XF 498 CNS
LXFL 529 NSCLC = test system: LXFL 529 NSCLC
SK-MEL-2 melanoma = test system: SK-MEL-2 melanoma
KM12 colon = test system: KM12 colon
ACHN renal = test system: ACHN renal
NCI-H226 lung = test system: NCI-H226 lung
COLO 205 colon = test system: COLO 205 colon
SR leukemia = test system: SR leukemia
LOX IMVI melanoma = test system: LOX IMVI melanoma
SF-539 CNS = test system: SF-539 CNS
MOLT-4 leukemia = test system: MOLT-4 leukemia
SW-620 colon = test system: SW-620 colon
MALME-3M melanoma = test system: MALME-3M melanoma
UACC-62 melanoma = test system: UACC-62 melanoma
HCT-15 colon = test system: HCT-15 colon
HT29 colon = test system: HT29 colon
M19-MEL melanoma = test system: M19-MEL melanoma
SNB-19 CNS = test system: SNB-19 CNS
OVCAR-3 ovarian = test system: OVCAR-3 ovarian
OVCAR-8 ovarian = test system: OVCAR-8 ovarian
DMS 114 small cell lung = test system: DMS 114 small cell lung
KM20L2 colon = test system: KM20L2 colon
TK-10 renal = test system: TK-10 renal
IGROV1 ovarian = test system: IGROV1 ovarian
OVCAR-5 ovarian = test system: OVCAR-5 ovarian
DU-145 prostate = test system: DU-145 prostate
T-47D breast = test system: T-47D breast
EKVX NSCLC = test system: EKVX NSCLC
BT-549 breast = test system: BT-549 breast

CC(C)=CCCC1(C)C=Cc2c(c(C)cc3c2[nH]c2cc(O)ccc23)O1 (centres undefined)
TGI (M14 melanoma): > 25 µM | TGI (U251 CNS): > 25 µM | TGI (HL-60(TB) leukemia): > 25 µM | TGI (DMS 273 small cell lung): > 25 µM | TGI (K-562 leukemia): > 25 µM | TGI (HOP-62 NSCLC): > 25 µM | TGI (NCI-H522 lung): > 25 µM | TGI (HOP-92 NSCLC): > 25 µM | TGI (RXF 393 renal): > 25 µM | TGI (A549 NSCLC): > 25 µM | TGI (NCI-H460 lung): > 25 µM | TGI (SK-OV-3 ovarian): > 25 µM | TGI (SK-MEL-5 melanoma): > 25 µM | TGI (786-0 renal): > 25 µM | TGI (HCC-2998 colon): > 25 µM | TGI (CCRF-CEM leukemia): > 25 µM | TGI (SF-268 CNS): > 25 µM | TGI (HCT-116 colon): > 25 µM | TGI (OVCAR-4 ovarian): > 25 µM | TGI (SN12C renal): > 25 µM | TGI (SK-MEL-28 melanoma): > 25 µM | TGI (DLD-1 colon): > 25 µM | TGI (HOP-18 NSCLC): > 25 µM | TGI (RPMI-8226 leukemia): > 25 µM | TGI (UO-31 renal): > 25 µM | TGI (XF 498 CNS): > 25 µM | TGI (LXFL 529 NSCLC): > 25 µM | TGI (SK-MEL-2 melanoma): > 25 µM | TGI (KM12 colon): > 25 µM | TGI (ACHN renal): > 25 µM | TGI (NCI-H226 lung): > 25 µM | TGI (COLO 205 colon): > 25 µM | TGI (SR leukemia): > 25 µM | TGI (LOX IMVI melanoma): > 25 µM | TGI (SF-539 CNS): > 25 µM | TGI (MOLT-4 leukemia): > 25 µM | TGI (SW-620 colon): > 25 µM | TGI (MALME-3M melanoma): > 25 µM | TGI (UACC-62 melanoma): > 25 µM | TGI (HCT-15 colon): > 25 µM | TGI (HT29 colon): > 25 µM | TGI (M19-MEL melanoma): > 25 µM | TGI (SNB-19 CNS): > 25 µM | TGI (OVCAR-3 ovarian): > 25 µM | TGI (OVCAR-8 ovarian): > 25 µM | TGI (DMS 114 small cell lung): > 25 µM | TGI (KM20L2 colon): > 25 µM | TGI (TK-10 renal): > 25 µM | TGI (IGROV1 ovarian): > 25 µM | TGI (OVCAR-5 ovarian): > 25 µM

COc1ccc(/C=C/c2cc(OC)c(OC)c(OC)c2)cc1O
TGI (DU-145 prostate): 38.9 µM | TGI (T-47D breast): 45.7 µM | TGI (SK-OV-3 ovarian): 39.9 µM | TGI (786-0 renal): 15.3 µM | TGI (HCC-2998 colon): 36.9 µM | TGI (OVCAR-4 ovarian): 71.5 µM | TGI (UO-31 renal): 21 µM | TGI (EKVX NSCLC): 59.3 µM | TGI (COLO 205 colon): 54.3 µM | TGI (BT-549 breast): 40.7 µM | TGI (HT29 colon): 24 µM | TGI (KM20L2 colon): 25.1 µM | TGI (TK-10 renal): 75.1 µM | TGI (OVCAR-5 ovarian): 79.5 µM
